Among the data in patent publication US7842685B2, “S1P1 receptor agonists and use thereof” (Amgen Inc., priority 2008, dated 2010) are Emax and EC50 values, retold here.

SMILES strings stand for the structures. Where a name gives a salt, the structure may show the parent alone.

This assay deals with T1, hS1P1 receptor (Homo sapiens, UniProt P21453).
T1 construct: host or cells: U2OS
Briefly: hS1P1 receptor internalization assay (cell imaging-based, hS1P1-eGFP U2OS cells). The following applies: U2OS cell line expressing hS1P1-eGFP, compounds incubated at 37° C. for one hour; for Emax: 1 h, efficacy (Max), read-out: hS1P1 Receptor Internalization (biolimaging) Max (%); for EC50: GFP-containing endosomes per cell (ArrayScan), read-out: hS1P1 Receptor Internalization (bioimaging) EC50 IP. The method, then:
The activity of compounds of the invention was determined by a cell imaging-based assay measuring the degree of hS1P1 receptor internalization and a Ca^2+ mobilization assay measuring the level of S1P receptor activation. The receptor internalization assay was employed to determine the potency and efficacy of compounds on hS1P1 receptor, while Ca^2+ mobilization assay was used to determine selectivity among different S1P receptors and activity on S1P receptors from species such as rat, dog, and cyno. The hS1P1 receptor internalization assay was performed using a U2OS cell line expressing hS1P1-eGFP chimeric protein (Thermo Scientific, Soeborg, Denmark). Upon compound treatment, the hS1P1 receptor was internalized in cytoplasma and formed GFP-containing-endosomes. This event was detected by an automated microscope, ArrayScan (Thermo Scientific Cellomics, Pittsburg), and the degree of receptor internalization is quantitated by counting green fluorescent GFP-containing endosomes per cell. In this assay, hS1P1-eGFP expressing U2OS cells were starved in serum free media for two hours prior to compound treatment. Then compounds were incubated with the starved cells at 37° C. for one hour. Subsequently, compound-treated cells were fixed using 4% formaldehyde, and the nuclei were stained using Hoechst. Then the cells were imaged in ArrayScan. The potency and efficacy of the compounds were determined by plotting the number of green fluorescent GFP-containing endosomes per cell against corresponding compound concentration.

T1 sequence (P21453 whole entry): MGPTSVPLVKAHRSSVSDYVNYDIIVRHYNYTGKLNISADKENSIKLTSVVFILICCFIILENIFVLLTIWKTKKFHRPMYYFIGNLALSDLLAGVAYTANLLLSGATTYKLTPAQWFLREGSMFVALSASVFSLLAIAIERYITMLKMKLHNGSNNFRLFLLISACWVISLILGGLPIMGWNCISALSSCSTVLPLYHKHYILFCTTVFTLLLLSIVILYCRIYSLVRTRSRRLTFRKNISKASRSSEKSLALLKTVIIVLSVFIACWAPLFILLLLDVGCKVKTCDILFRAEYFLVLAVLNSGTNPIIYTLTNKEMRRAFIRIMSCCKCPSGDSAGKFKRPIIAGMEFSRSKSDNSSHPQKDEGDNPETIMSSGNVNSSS

Usually EC50 stands for the concentration at which the effect is half-maximal. In the case of `O=C(O)[C@@H]1C[C@H](c2ccc(-c3nc4ccc(C5(c6ccccc6)CC5)nc4s3)c(F)c2)CN1` [Example 54, (2S,4R)-4-(3-fluoro-4-(5-(1-phenylcyclopropyl)thiazolo[5,4-b]pyridine-2-yl)phenyl)pyrrolidine-2-carboxylic acid trifluoroacetic acid salt], the Emax worked out at 126% and the concentration giving a half-maximal response (EC50) is 4.5 nM.

For the compound `O=C(O)C(=O)NCCc1ccc(-c2nc3ccc(C4(c5ccccc5)CC4)nc3s2)c(F)c1` [Example 57, ((2-(3-fluoro-4-(5-(1-phenylcyclopropyl)[1,3]thiazolo[5,4-b]pyridin-2-yl)phenyl)ethyl)amino)(oxo)acetic acid], the Emax was 107% and the EC50 was found to be 35.5 nM.

Take `Fc1cc(CCNCc2ccccc2)ccc1-c1nc2ccc(C3(c4ccccc4)CC3)nc2s1` [Example 60, N-benzyl-2-(3-fluoro-4-(5-(1-phenylcyclopropyl)[1,3]thiazolo[5,4-b]pyridin-2-yl)phenyl)ethanamine]: the Emax turned out to be 162% and the EC50 came out at 721 nM.

As for `CS(=O)(=O)NCCc1ccc(-c2nc3ccc(C4(c5ccccc5)CC4)nc3s2)c(F)c1` [Example 61, N-(2-(3-fluoro-4-(5-(1-phenylcyclopropyl)[1,3]thiazolo[5,4-b]pyridin-2-yl)phenyl)ethyl)methanesulfonamide], the Emax is 491% and the concentration for a half-maximal effect (EC50) was 2490 nM.

For the compound `O=C(O)C1CN(Cc2ccc(-c3nc4ccc(C5(c6ccccn6)CC5)cc4s3)c(F)c2)C1` [Example 62, 1-((3-fluoro-4-(6-(1-(pyridine-2-yl)cyclopropyl)benzo[d]thiazol-2-yl)-phenyl)methyl)azetidine-3-carboxylic acid], the Emax is 98% and the EC50 came to 3710 nM.

In the case of `Cc1cc(-c2nc3ccc(C4(c5ccccc5)CC4)nc3s2)cc(C)c1OC[C@H](O)CO` [Example 67, (R)-3-(2,6-dimethyl-4-(5-(1-phenylcyclopropyl)thiazolo[5,4-b]pyridin-2-yl)phenoxy)propane-1,2-diol], the Emax was determined as 125% and the EC50 was 70.4 nM.

Consider `O=C(O)[C@@H]1C[C@@H](Oc2ccc(-c3nc4ccc(C5(c6ccccc6)CC5)nc4s3)cc2)CN1` [Example 72, (2S,4R)-4-(4-(5-(1-phenylcyclopropyl)thiazolo[5,4-b]pyridin-2-yl)phenoxy)pyrrolidine-2-carboxylic acid], for which the Emax turned out to be 133% and the EC50 worked out at 45.1 nM.

For the compound `O=C(O)CC1CN(Cc2ccc(-c3nc4ccc(C5(c6ccccc6)CC5)nc4s3)c(F)c2)C1` [Example 79, 2-(1-(3-fluoro-4-(5-(1-phenylcyclopropyl)thiazolo[5,4-b]pyridin-2-yl)-benzyl)azetidin-3-yl)acetic acid], the Emax stood at 150% and the EC50 is 38.4 nM.

On to `c1ccc(C2(c3ccc4nc(-c5ccc6c(c5)CCNC6)sc4n3)CC2)cc1` [Example 80, 5-(1-phenylcyclopropyl)-2-(1,2,3,4-tetrahydroisoquinolin-6-yl)thiazolo-[5,4-b]pyridine], for which the Emax was 148% and the EC50 was 563 nM.

`O=C(O)CN1CCc2cc(-c3nc4ccc(C5(c6ccccc6)CC5)nc4s3)ccc2C1` [Example 82, 2-(6-(5-(1-phenylcyclopropyl)thiazolo[5,4-b]pyridin-2-yl)-3,4-dihydroisoquinolin-2(1H)-yl)acetic acid]: the Emax was 106% and the EC50 came to 46.1 nM.

On to `O=C(O)COCc1ccc(-c2nc3ccc(C4(c5ccccc5)CC4)nc3s2)c(F)c1` [Example 85, 2-(3-fluoro-4-(5-(1-phenylcyclopropyl)thiazolo[5,4-b]pyridin-2-yl)benzyloxy)acetic acid], for which the Emax was determined as 88% and the EC50 turned out to be 1270 nM.

Consider `C[C@H](CC(=O)O)NCc1ccc(-c2nc3ccc(C4(c5ccccc5)CC4)nc3s2)c(F)c1` [Example 91, (R)-3-(3-fluoro-4-(5-(1-phenylcyclopropyl)thiazolo[5,4-b]pyridin-2-yl)benzylamino)butanoic acid hydrochloride], for which the Emax was 131% and the EC50 worked out at 32.7 nM.
